Values of other authors, collected in patent US20070028930A1, “Active agent and formulations to minimize or alleviate bladder urgency and irritation and/or to enhance sexual function” (Delithe Natural Products Inc., priority 2005, published 2007).

Test system: bladder
Settings: 10 mg/kg dose, rats

CNCC[C@H](Oc1cccc2ccccc12)c1cccs1 [Duloxetine]
efficacy in in vivo bladder studies: effective
